Values quoted from earlier work as cited in paper PMC3426641 (Biochemistry, 2012).

Molecular target: T1, Eis_Mtb (Mycobacterium tuberculosis, UniProt P9WFK7)
T1 sequence (P9WFK7 whole entry): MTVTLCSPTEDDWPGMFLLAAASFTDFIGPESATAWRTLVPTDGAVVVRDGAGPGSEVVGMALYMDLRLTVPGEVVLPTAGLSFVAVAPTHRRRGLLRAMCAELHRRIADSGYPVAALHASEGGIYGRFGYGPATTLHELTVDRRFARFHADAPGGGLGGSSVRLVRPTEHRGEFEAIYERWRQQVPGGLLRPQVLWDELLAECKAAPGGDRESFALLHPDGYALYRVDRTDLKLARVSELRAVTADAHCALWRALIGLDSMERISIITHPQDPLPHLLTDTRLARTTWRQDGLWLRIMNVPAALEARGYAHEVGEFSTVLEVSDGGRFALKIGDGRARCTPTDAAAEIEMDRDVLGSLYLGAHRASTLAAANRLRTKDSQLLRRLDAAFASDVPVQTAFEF
Details: cited from earlier work
In the case of kanamycin A, the “level of acetylation by Eis from M. tuberculosis” value (from here on “level of acetylation by Eis”) is given as “di-acetylated”.

Same assay, conditions: number of acetylations per AG; previously reported; cited from earlier work
In the case of `NC[C@H]1O[C@H](O[C@H]2[C@H](O)[C@@H](O)[C@H](N)C[C@@H]2N)[C@H](N)[C@@H](O)[C@@H]1O` [NEA, neamine], the “level of acetylation by Eis” value is given as “tri-acetylated”. In the case of `[H]/N=C(/N)N[C@H]1[C@H](O)[C@@H](O)[C@H](O[C@@H]2O[C@@H](C)[C@](O)(C=O)[C@H]2O[C@@H]2O[C@@H](CO)[C@H](O)[C@@H](O)[C@@H]2NC)[C@@H](N/C(N)=N\[H])[C@@H]1O` [STR, streptomycin], the “level of acetylation by Eis” value is given as “not modified”. For `CCN[C@@H]1C[C@H](N)[C@@H](O[C@H]2OC(CN)=CC[C@H]2N)[C@H](O)[C@H]1O[C@H]1OC[C@](C)(O)[C@H](NC)[C@H]1O` [NET, netilmicin], the “level of acetylation by Eis” value is listed as “di-acetylated”. For `CN[C@@H]1[C@H](O)[C@H](NC)[C@H]2O[C@@]3(O)C(=O)C[C@@H](C)O[C@H]3O[C@@H]2[C@H]1O` [SPT, spectinomycin], the “level of acetylation by Eis” value is given as “not modified”. For `NC[C@@H]1O[C@H](O[C@H]2[C@@H](O)[C@H](O[C@@H]3[C@@H](O)[C@H](N)C[C@H](N)[C@H]3O[C@H]3O[C@H](CN)[C@@H](O)[C@H](O)[C@H]3N)O[C@@H]2CO)[C@H](N)[C@@H](O)[C@@H]1O` [NEO, neomycin B], the “level of acetylation by Eis” value is given as “tri-acetylated”. For `NC[C@H]1O[C@H](O[C@H]2[C@H](O[C@@H]3O[C@H](CO)[C@@H](O)[C@H]3O)[C@@H](O)[C@H](N)C[C@@H]2N)[C@H](N)[C@@H](O)[C@@H]1O` [RIB, ribostamycin], the “level of acetylation by Eis” value is given as “tri-acetylated”. For `CN[C@@H]1[C@@H](O[C@H]2O[C@H](CO)[C@@H](N)[C@H](O)[C@H]2O)OC2C[C@@H](N)[C@@H](O[C@H]3[C@H](O)[C@@H](O)[C@H](N)C[C@@H]3N)OC2[C@@H]1O` (some centres unmarked) [APR, apramycin], the “level of acetylation by Eis” value is given as “could not chemically modify”. For `NCC[C@H](O)C(=O)N[C@@H]1C[C@H](N)[C@@H](O[C@H]2O[C@H](CN)[C@@H](O)[C@H](O)[C@H]2O)[C@H](O)[C@H]1O[C@H]1O[C@H](CO)[C@@H](O)[C@H](N)[C@H]1O` [AMK, amikacin], the “level of acetylation by Eis” value is listed as “tri-acetylated”. In the case of `CN[C@@H]1C[C@H](N)[C@@H](O)[C@H](O[C@H]2O[C@H](CO)[C@H](O)[C@@H]3O[C@@]4(O[C@@H]23)O[C@H]([C@H](N)CO)[C@H](O)[C@H](O)[C@H]4O)[C@H]1O` [HYG, hygromycin], the “level of acetylation by Eis” value is given as “di-acetylated”. For `CN[C@@H]1[C@@H](O)[C@@H](O[C@@H]2[C@@H](O)[C@H](O[C@H]3OC(CN)=CC[C@H]3N)[C@@H](N)C[C@H]2N)OC[C@]1(C)O` [SIS, sisomicin], the “level of acetylation by Eis” value is listed as “tri-acetylated”. In the case of `NC[C@@H]1O[C@H](O[C@H]2[C@@H](O)[C@H](O[C@@H]3[C@@H](O)[C@H](N)C[C@H](N)[C@H]3O[C@H]3O[C@H](CO)[C@@H](O)[C@H](O)[C@H]3N)O[C@@H]2CO)[C@H](N)[C@@H](O)[C@@H]1O` [PAR, paromomycin], the “level of acetylation by Eis” value is given as “di-acetylated”. For `NC[C@H]1O[C@H](O[C@H]2[C@H](O)[C@@H](O[C@H]3O[C@H](CO)[C@@H](O)[C@H](N)[C@H]3O)[C@H](N)C[C@@H]2N)[C@H](N)C[C@@H]1O` [TOB, tobramycin], the “level of acetylation by Eis” value is given as “tetra-acetylated”.

Molecular target: T1, Eis_Mtb
Details: TLC and NMR spectroscopy; cited from earlier work
For `NC[C@H]1O[C@H](O[C@H]2[C@H](O)[C@@H](O)[C@H](N)C[C@@H]2N)[C@H](N)[C@@H](O)[C@@H]1O` [NEA, neamine], the “positions acetylated (regio-specificity)” value is listed as “first at the 2′-, then at the 6′-, and finally at the 1-position”.
